# Assay results reported in the supplement of paper PMC13380429.
# Key:
# Settings in all cases: 72 h
# [1] = system: Calu-3; experiment: cell viability relative to DMSO; higher = less toxic
# [2] = system: Vero E6; experiment: as above
# [3] = system: U2OS; experiment: as above
# [4] = system: Caco-2; experiment: as above
# [5] = system: HepG2; experiment: as above
# [6] = system: Calu-3; experiment: drug sensitivity score (DSS) for viability; higher = more toxic; extreme values may be limits of the assay
# [7] = system: Vero E6; experiment: as above
# [8] = system: U2OS; experiment: as above
# [9] = system: Caco-2; experiment: as above
# [10] = system: HepG2; experiment: as above
# [11] = system: Calu-3; experiment: relative viability EC50 (midpoint between 100% and the lowest measured viability); higher = less toxic
# [12] = system: Vero E6; experiment: as above
# [13] = system: U2OS; experiment: as above
# [14] = system: HepG2; experiment: as above
Structure (SMILES),cell viability ([1]; 1 nM) [%],cell viability ([1]; 10 nM) [%],cell viability ([1]; 100 nM) [%],cell viability ([1]; 1000 nM) [%],cell viability ([1]; 10000 nM) [%],cell viability ([2]; 1 nM) [%],cell viability ([2]; 10 nM) [%],cell viability ([2]; 100 nM) [%],cell viability ([2]; 1000 nM) [%],cell viability ([2]; 10000 nM) [%],cell viability ([3]; 1 nM) [%],cell viability ([3]; 10 nM) [%],cell viability ([3]; 100 nM) [%],cell viability ([3]; 1000 nM) [%],cell viability ([3]; 10000 nM) [%],cell viability ([4]; 1 nM) [%],cell viability ([4]; 10 nM) [%],cell viability ([4]; 100 nM) [%],cell viability ([4]; 1000 nM) [%],cell viability ([4]; 10000 nM) [%],cell viability ([5]; 1 nM) [%],cell viability ([5]; 10 nM) [%],cell viability ([5]; 100 nM) [%],cell viability ([5]; 1000 nM) [%],cell viability ([5]; 10000 nM) [%],drug sensitivity score [6],drug sensitivity score [7],drug sensitivity score [8],drug sensitivity score [9],drug sensitivity score [10],relative viability EC50 [11] [µM],relative viability EC50 [12] [µM],relative viability EC50 [13] [µM],relative viability EC50 [14] [µM]
O=C(Nc1cccnc1)N1CCC(Cc2cccc(Oc3ccc(C(F)(F)F)cn3)c2)CC1 [PF-3845],103,105,104,102,79.1,103,96.8,89.9,101,78.7,97.3,107,101,98.5,82.7,99.7,103,90.3,92.4,66.9,109,102,98.3,101,32.7,0.5,0.6,0.6,2.4,3.6,> 10,> 10,> 10,3.25
CC[C@H](C)C(=O)O[C@H]1C[C@H](O)C=C2C=C[C@H](C)[C@H](CC[C@@H](O)C[C@@H](O)CC(=O)O)[C@H]21 [PRAVASTATIN SODIUM],98.2,93.8,93.3,98.2,95.2,98.9,109,107,96.4,105,97.7,[…],94.2,101,98.5,,,,,,112,105,93,86.1,112,0,0,0,,0,[…],[…],[…],[…]
N#CC(=C(/N)Sc1ccccc1N)/C(C#N)=C(/N)Sc1ccccc1N [U-0126],94.6,102,100,90.6,93.5,102,99.9,97.9,88.6,80.9,98.2,104,96.9,98.3,84.3,100,96.8,99.3,86.4,65,101,95.9,94.7,70.6,41,0,1.3,0.4,3.4,6.6,> 10,> 10,> 10,0.953
CCCSc1ccc2[nH]c(NC(=O)OC)nc2c1 [albendazole],107,102,111,94.7,66.4,105,95.3,104,80.1,34.6,101,100,94.5,81.1,47.8,87.7,98.6,96.9,88,66.7,103,97.9,85.6,68.7,33.1,2.4,6.5,4.9,2.8,7.8,,1.39,1.37,0.824
COc1ccc(C(=O)N2CCCC2=O)cc1 [aniracetam],,,,,,,,,,,,,,,,,,,,,,,,,,0,0,0,,0,,,,
CCN1CCN(C(=O)Cc2ccc(Nc3ncc(F)c(Nc4ccc(C(=O)Nc5ccccc5Cl)cc4)n3)cc2)CC1 [aurora-a-inhibitor-i],101,103,109,94.8,84.5,97,106,99.6,93.4,86.8,100,99.8,99.2,99.1,12,101,93.4,95.5,98,74.9,91.2,90.7,89.6,93.9,64.8,0.7,0.4,5,1.2,2.7,> 10,> 10,3.09,
Cn1cnc2c(F)c(Nc3ccc(Br)cc3F)c(C(=O)NOCCO)cc21 [binimetinib],94.7,77.5,66.4,59.9,37.2,97.2,92.4,72.6,56.5,51.2,97.9,91.4,92,93.4,43.9,94,87.3,77.2,73,65.6,96,83.6,38,23.7,20.8,14.1,11.5,4.1,8.1,23.5,0.078,,2.2,0.0323
COc1cc(N2CCC(N3CCN(C)CC3)CC2)ccc1Nc1ncc(Cl)c(Nc2ccccc2P(C)(C)=O)n1 [brigatinib],105,102,106,89.5,35.3,98.7,102,101,94.5,78.5,97.2,99.5,97.4,98.4,64.8,94.9,97,92.8,94,73,98.1,92.8,105,81.7,55,5.3,1.4,1.9,1.8,4.8,1.92,> 10,,
O=C(N[C@H](CO)[C@H](O)c1ccc([N+](=O)[O-])cc1)C(Cl)Cl [chloramphenicol],,,,,,,,,,,,,,,,,,,,,,,,,,0,0,0,,1.1,,,,
Oc1ccc(Cl)cc1Cc1cc(Cl)ccc1O [dichlorophen],,,,,,106,99.4,104,97.5,86.7,101,95.1,96.7,99.7,93.5,107,88.9,108,70.1,54.6,105,89.4,96.9,97.9,76.6,,0.3,0,5.9,1.1,,> 10,> 10,> 10
O=C(O)Cc1ccccc1Nc1c(Cl)cccc1Cl [diclofenac],,,,,,,,,,,,,,,,,,,,,,,,,,0,0,0,,,,,,
COc1ccc(-c2oc3c(CC=C(C)C)c(O[C@@H]4O[C@H](CO)[C@@H](O)[C@H](O)[C@H]4O)cc(O)c3c(=O)c2O[C@@H]2O[C@@H](C)[C@H](O)[C@@H](O)[C@H]2O)cc1 [icariin],,,,,,,,,,,,,,,,,,,,,,,,,,0,0,0,,0,,,,
CCNC(=O)[C@@H]1CCCN1C(=O)[C@H](CCCNC(=N)N)NC(=O)[C@H](CC(C)C)NC(=O)[C@@H](CC(C)C)NC(=O)[C@H](Cc1ccc(O)cc1)NC(=O)[C@H](CO)NC(=O)[C@H](Cc1c[nH]c2ccccc12)NC(=O)[C@H](Cc1c[nH]cn1)NC(=O)[C@@H]1CCC(=O)N1 [leuprolide],99.5,99.3,95,110,103,102,99.3,98.6,105,105,92.6,96.9,103,97,102,107,114,107,114,72.2,,,,,,0,0,0,0.7,,> 10,> 10,> 10,
N[C@@H](Cc1cc(I)c(Oc2ccc(O)c(I)c2)c(I)c1)C(=O)O [liothyronine],98.9,96.8,92.5,93.5,95,104,92.4,92.6,88.6,91.3,97.1,97.5,93.4,96,93.5,93.8,98.5,96.7,98.1,96.5,102,104,107,96.6,,0,1,0,0,0,,,,
C[C@H](Cc1ccc(O)c(O)c1)[C@@H](C)Cc1ccc(O)c(O)c1 [masoprocol],95.5,108,93.4,93.6,93,102,91.6,88.6,91.5,81.3,92.1,104,97.7,97.8,95.9,88.3,83.1,72.1,78.6,55.5,98.3,94,94.5,101,97.1,0,1.4,0,9.6,0,> 10,> 10,> 10,> 10
COC(=O)CCC(=O)CN [methyl-aminolevulinate],101,96.5,98,100,93.4,97.1,89,99.5,88.8,105,90.5,96,96.8,97.3,104,,,,,,83.8,98.4,94.5,84,87.8,0,0,0,,0,> 10,> 10,> 10,> 10
CC(C)(O)[C@@H]1[C@H]2OC(=O)[C@@H]1[C@]1(O)C[C@H]3O[C@]34C(=O)O[C@H]2[C@]14C [picrotin],,,,,,,,,,,,,,,,,,,,,,,,,,0,,0,,0,,,,
CC(C)Cc1ccc([C@@H](C)C(=O)NS(C)(=O)=O)cc1 [reparixin],,,,,,,,,,,,,,,,,,,,,,,,,,0,0,0,,0,,,,
CSCC[C@H](NC(=O)[C@H](CC(C)C)NC(=O)CNC(=O)[C@H](Cc1ccccc1)NC(=O)[C@H](Cc1ccccc1)NC(=O)[C@H](CCC(N)=O)NC(=O)[C@H](CCC(N)=O)NC(=O)[C@@H]1CCCN1C(=O)[C@H](CCCCN)NC(=O)[C@@H]1CCCN1C(=O)[C@@H](N)CCCN=C(N)N)C(N)=O [substance-P],103,98.4,102,96.5,95.6,102,97.5,103,102,99,99.5,97.2,96.2,96.7,98.2,,,,,,88.1,96.3,100,107,105,0,0,0,,0,> 10,> 10,> 10,> 10
CS(=O)(=O)c1ccc(-c2cn3ccccc3n2)cc1 [zolimidine],,,,,,107,107,105,94.4,88,100,94.7,94.8,93.5,95.9,,,,,,117,104,87.3,98.6,93.8,,0.3,0,,0,,> 10,> 10,> 10
